Paper PMC8849072, “Sudapyridine (WX-081), a Novel Compound against Mycobacterium tuberculosis” (Microbiology Spectrum, 2022)
≈ marks a conversion by molar mass, not a printed value.

Columns and labels:
M. tuberculosis H37Rv [1] = type: in vivo, BALB/c mice
[2] = 14-day repeated oral dose toxicity and toxicokinetic head-to-head study in beagle dogs; type: in vivo, beagle dog
[3] = tested on: M. tuberculosis H37Rv and two clinical isolates (14619, 14242); test: Time-kill curve analysis; type: cell-based, Mycobacterium tuberculosis; details: up to 14 days culture
[4] = Pharmacokinetic study in rats; type: in vivo, rat; details: for At 96 h lung/plasma: lung / At 96 h lung/plasma: plasma / half-life: Rat; for At 96 h lung/plasma: lung: lung exposure at 96 h (first number of the pair); for At 96 h lung/plasma: plasma: plasma exposure at 96 h (second number of the pair); for half-life: plasma
Description: (§1) The BALB/c mice, rats, and beagle dogs were used in the PK study and fasted overnight before dosing. Animal doses were administered in two ways. […] Plasma samples were collected from three animals at each time point. Plasma concentrations were determined by liquid chromatography-tandem mass spectrometry (LC-MS/MS). The bioanalytical method by LC-MS/MS for pharmacokinetic (PK) studies in animal and toxicokinetic (TK) in tox studies have been validated. The total area under the concentration-time curve (AUC0-inf), the elimination half-time (t1/2), the peak concentration (Cmax), and the time to reach peak concentration (Tmax) of samples were determined directly from the experimental data using WinNonlin V6.2.1.

[5] = Preliminary in vivo toxicity study in mice
Description: Before the in vivo activity test, a preliminary in vivo toxicity study was conducted. All mice tolerated WX-081 at the administered doses. No adverse events were found.

[6] = Pharmacokinetic study in beagle dogs; type: in vivo; details: dog; for AUC(0-inf): AUC0-inf; for half-life: plasma
Description: The BALB/c mice, rats, and beagle dogs were used in the PK study and fasted overnight before dosing. Animal doses were administered in two ways. One is oral administration, configured to form a 6.25 mg/kg WX-081, with 0.5% carboxymethylcellulose (CMC), the other is the WX-081 with an intravenous injection of 1.0 mg/kg (formulated in 40% hydroxypropyl-β-cyclodextrin and 50 mM citrate buffer at pH 3). Plasma samples were collected from three animals at each time point. Plasma concentrations were determined by liquid chromatography-tandem mass spectrometry (LC-MS/MS). The bioanalytical method by LC-MS/MS for pharmacokinetic (PK) studies in animal and toxicokinetic (TK) in tox studies have been validated. The total area under the concentration-time curve (AUC0-inf), the elimination half-time (t1/2), the peak concentration (Cmax), and the time to reach peak concentration (Tmax) of samples were determined directly from the experimental data using WinNonlin V6.2.1.

M. tuberculosis H37Rv [7] = type: in vivo, BALB/c mice; details: acute model
[8] = tested on: M. tuberculosis susceptible strain 14480; test: MIC by microplate alamarBlue assay (MABA); type: cell-based, Mycobacterium tuberculosis; details: Mycobacterium tuberculosis
[9] = tested on: M. tuberculosis susceptible strain 14286; test: MIC by microplate alamarBlue assay (MABA); type: cell-based, Mycobacterium tuberculosis; details: Mycobacterium tuberculosis
[10] = tested on: M. tuberculosis susceptible strain 14242; test: MIC by microplate alamarBlue assay (MABA); type: cell-based, Mycobacterium tuberculosis; details: Mycobacterium tuberculosis
[11] = tested on: M. tuberculosis susceptible strain 14242; test: MBC determination (CFU-based); details: 7 days incubation, 3 log10 CFU decrease
[12] = Pharmacokinetic study in mice; type: in vivo, BALB/c mice; details: for half-life: plasma; for half-life / At 96 h lung/plasma: lung / At 96 h lung/plasma: plasma: Mice; for At 96 h lung/plasma: lung: lung exposure at 96 h (first number of the pair); for At 96 h lung/plasma: plasma: plasma exposure at 96 h (second number of the pair)
Description: as §1

[13] = target: T1, human ether-á-go-go-related (hERG) ion channel (Homo sapiens, UniProt Q12809); test: hERG manual patch-clamp assay in hERG-CHO cell; type: cell-based; details: parent compound
T1 construct: expressed in transfected cells; host or cells: hERG-CHO cell (CHO cells expressing hERG)
T1 sequence (Q12809 whole entry): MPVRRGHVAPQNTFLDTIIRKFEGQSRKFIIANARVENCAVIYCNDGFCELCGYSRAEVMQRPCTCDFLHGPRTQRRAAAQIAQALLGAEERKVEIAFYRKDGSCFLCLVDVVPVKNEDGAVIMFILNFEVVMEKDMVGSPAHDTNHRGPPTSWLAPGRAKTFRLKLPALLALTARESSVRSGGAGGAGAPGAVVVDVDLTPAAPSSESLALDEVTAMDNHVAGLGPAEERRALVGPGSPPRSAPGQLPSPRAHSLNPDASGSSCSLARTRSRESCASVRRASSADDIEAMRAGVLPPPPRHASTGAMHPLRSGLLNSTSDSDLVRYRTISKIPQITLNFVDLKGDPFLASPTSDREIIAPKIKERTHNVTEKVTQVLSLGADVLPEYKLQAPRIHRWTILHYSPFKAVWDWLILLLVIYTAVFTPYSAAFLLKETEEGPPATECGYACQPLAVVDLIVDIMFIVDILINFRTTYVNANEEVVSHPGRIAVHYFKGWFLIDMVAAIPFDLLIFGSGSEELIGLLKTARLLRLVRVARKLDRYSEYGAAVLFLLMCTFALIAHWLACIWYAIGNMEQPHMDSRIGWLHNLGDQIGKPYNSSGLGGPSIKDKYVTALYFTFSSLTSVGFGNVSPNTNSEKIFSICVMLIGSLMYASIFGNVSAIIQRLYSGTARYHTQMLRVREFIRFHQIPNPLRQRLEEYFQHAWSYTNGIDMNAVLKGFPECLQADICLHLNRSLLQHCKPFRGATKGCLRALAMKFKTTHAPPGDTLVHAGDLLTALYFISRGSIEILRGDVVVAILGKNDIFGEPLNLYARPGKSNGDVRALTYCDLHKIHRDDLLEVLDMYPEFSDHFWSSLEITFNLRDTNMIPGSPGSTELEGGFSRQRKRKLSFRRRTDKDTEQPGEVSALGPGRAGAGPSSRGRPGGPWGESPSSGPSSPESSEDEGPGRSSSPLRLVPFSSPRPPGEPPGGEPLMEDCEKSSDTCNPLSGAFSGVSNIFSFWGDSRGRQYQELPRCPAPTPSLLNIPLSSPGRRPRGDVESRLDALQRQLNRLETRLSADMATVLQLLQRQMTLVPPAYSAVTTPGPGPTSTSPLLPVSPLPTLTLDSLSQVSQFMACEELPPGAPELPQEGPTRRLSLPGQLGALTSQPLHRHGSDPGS
Description: A human ether-á-go-go-related (hERG) ion channel in vitro assay was performed in Shanghai Institute of Materia Medica, Shanghai, for the evaluation of cardiac liability testing. The assay was a manual patch-clamp method using electrophysiology in an hERG-CHO cell.

M. tuberculosis H37Rv [14] = test: MIC by microplate alamarBlue assay (MABA); type: cell-based, Mycobacterium tuberculosis; details: Mycobacterium tuberculosis, H37RV
[15] = tested on: M. tuberculosis susceptible strain 14280; test: MIC by microplate alamarBlue assay (MABA); type: cell-based, Mycobacterium tuberculosis; details: Mycobacterium tuberculosis
M. tuberculosis H37Rv [16] = test: MBC determination (CFU-based); details: 7 days incubation, 3 log10 CFU decrease
[17] = tested on: M. tuberculosis susceptible strain 14241; test: MIC by microplate alamarBlue assay (MABA); type: cell-based, Mycobacterium tuberculosis; details: Mycobacterium tuberculosis
[18] = beagle dogs, 200 mg/kg oral, 14 days
[19] = BALB/c, mouse, in vivo, iv, 1 mg/kg
[20] = BALB/c, mouse, in vivo, po, 6.25 mg/kg

COc1ncc(-c2ccc(Cl)cc2)cc1[C@@H](c1ccccc1)[C@@](O)(CCN(C)C)c1cccc2ccccc12 [WX-081, sudapyridine]
reduction of CFU in the lungs compared with 15 mg/kg RFP (M. tuberculosis H37Rv [1]; chronic model, 5 mg/kg, 8-week treatment): superior
activity compared with BDQ (M. tuberculosis H37Rv [1]; chronic model, 5, 10, and 20 mg/kg orally, 8 weeks): slightly lower than BDQ, there was no significant difference in activity
lung CFU after 8 weeks of treatment (M. tuberculosis H37Rv [1]; chronic model, any dose (5, 10, 20 mg/kg)): declined
mortality and moribundity ([2]; 200 mg/kg oral once daily, 14 days, male and female dogs): did not result in mortality and moribundity
ECG: HR [2, 18]: Slowing of the heart rate
ECG: QT interval [2, 18]: Physiologically appropriate lengthening of the QT interval
ECG: RR/PR interval [2, 18]: Lengthening of the RR interval
qualitative ECG changes associated with oral administration [2, 18]: no qualitative ECG changes
effects on blood pressure, heart rate, or qualitative ECG parameters ([2]; dog, in vivo): no adverse effects
cTnI ([2]; dog, in vivo, po, 200 mg/kg): no significant changes
concentration showing bactericidal effects in time-kill test [3]: ≥ 4 × MIC
At 96 h lung/plasma: lung ([4]; Iv. 1.0 mg/kg): 235
At 96 h lung/plasma: plasma ([4]; Iv. 1.0 mg/kg): 3.61
At 96 h lung/plasma: lung ([4]; Po. 5.0 mg/kg): 337
At 96 h lung/plasma: plasma ([4]; Po. 5.0 mg/kg): 4.74
half-life ([4]; Iv. 1.0 mg/kg): 25.6 h
half-life ([4]; Po. 5.0 mg/kg): 29.8 h
AUC(0-inf) ([4]; rat, in vivo, iv, 1 mg/kg): 2350 ng·h/mL
AUC(0-t) ([4]; rat, in vivo, iv, 1 mg/kg): 2220 ng·h/mL
Vd ([4]; rat, in vivo, iv, 1 mg/kg): 9.2 L/kg
clearance ([4]; rat, in vivo, iv, 1 mg/kg): 8.25 mL/min/kg
AUC(0-inf) ([4]; rat, in vivo, po, 5 mg/kg): 4310 ng·h/mL
AUC(0-t) ([4]; rat, in vivo, po, 5 mg/kg): 4080 ng·h/mL
Cmax ([4]; rat, in vivo, po, 5 mg/kg): 328 ng/mL
Tmax ([4]; rat, in vivo, po, 5 mg/kg): 1 h
bioavailability ([4]; rat, in vivo, po, 5 mg/kg): 36.7%
LD50 ([5]; mouse, in vivo, read-out: LD50 (dose that caused at least 50% of mice to die)): > 3000 mg/kg
tolerability at the administered doses ([5]; no adverse events were found): tolerated
AUC(0-t) ([6]; in vivo, iv, 0.5 mg/kg): 3610 ng·h/mL
Vd ([6]; in vivo, iv, 0.5 mg/kg): 6.04 L/kg
clearance ([6]; in vivo, iv, 0.5 mg/kg): 2.04 mL/min/kg
AUC(0-inf) ([6]; in vivo, iv, 0.5 mg/kg): 4250 ng·h/mL
AUC(0-t) ([6]; in vivo, po, 2 mg/kg): 8500 ng·h/mL
bioavailability ([6]; in vivo, po, 2 mg/kg): 58.9%
AUC(0-inf) ([6]; in vivo, po, 2 mg/kg): 9490 ng·h/mL
Cmax ([6]; in vivo, po, 2 mg/kg): 390 ng/mL
Tmax ([6]; in vivo, po, 2 mg/kg, Tmax): 4.67 h
AUC(0-t) ([6]; in vivo, po, 6 mg/kg): 20200 ng·h/mL
bioavailability ([6]; in vivo, po, 6 mg/kg): 46.6%
AUC(0-inf) ([6]; in vivo, po, 6 mg/kg): 22800 ng·h/mL
Cmax ([6]; in vivo, po, 6 mg/kg): 1080 ng/mL
Tmax ([6]; in vivo, po, 6 mg/kg, Tmax): 5.33 h
AUC(0-t) ([6]; in vivo, po, 20 mg/kg): 50400 ng·h/mL
bioavailability ([6]; in vivo, po, 20 mg/kg): 34.9%
Tmax ([6]; in vivo, po, 20 mg/kg, Tmax): 7.67 h
Tmax ([6]; in vivo, po, 20 mg/kg, time to peak concentration (Tmax)): 4.6 to 7.7 h
half-life ([6]; iv, 0.5 mg/kg, Dog, Iv. 0.5 mg/kg, read-out: t1/2 (converted)): 56.2 h
half-life ([6]; po, 2 mg/kg, Dog, Po. 2.0 mg/kg, read-out: t1/2 (converted)): 51.1 h
half-life ([6]; po, 6 mg/kg, Dog, Po. 6.0 mg/kg, read-out: t1/2 (converted)): 55.6 h
half-life ([6]; po, 20 mg/kg, Dog, Po. 20.0 mg/kg, read-out: t1/2 (converted)): 57.6 h
half-life ([6]; po, 20 mg/kg, beagle dogs, oral, range over doses of 2, 6, or 20 mg/kg, read-out: plasma half-life (t1/2)): 51 to 58 h
reduction in CFU compared with BDQ at 10 mg/kg (M. tuberculosis H37Rv [7]; 10 mg/kg, P < 0.05): larger reduction in CFU than BDQ
activity compared with BDQ at the equivalent dose (M. tuberculosis H37Rv [7]; 20 mg/kg): no difference from that of BDQ
culturable organisms in mouse lungs (M. tuberculosis H37Rv [7]; daily 20 mg/kg monotherapy, 20 days): all culturable organisms’ clearance
MIC [8]: 0.12 µg/mL (≈ 0.223 µM)
MIC [9]: 0.152 µg/mL (≈ 0.283 µM)
MIC [10]: 0.219 µg/mL (≈ 0.408 µM)
MBCs [11]: 0.313 µg/mL
AUC(0-inf) [12, 19]: 4800 ng·h/mL
AUC(0-t) [12, 19]: 3990 ng·h/mL
Vd [12, 19]: 10.4 L/kg
clearance [12, 19]: 3.59 mL/min/kg
AUC(0-inf) [12, 20]: 11900 ng·h/mL
AUC(0-t) [12, 20]: 10200 ng·h/mL
Cmax [12, 20]: 503 ng/mL
Tmax [12, 20]: 7.33 h
bioavailability [12, 20]: 40.7%
half-life ([12]; BALB/c, mouse, Iv. 1.0 mg/kg): 46.3 h
half-life ([12]; BALB/c, mouse, Po. 6.25 mg/kg): 43.9 h
At 96 h lung/plasma: lung ([12]; Iv. 1.0 mg/kg): 241
At 96 h lung/plasma: plasma ([12]; Iv. 1.0 mg/kg): 12.4
At 96 h lung/plasma: lung ([12]; Po. 6.25 mg/kg): 857
At 96 h lung/plasma: plasma ([12]; Po. 6.25 mg/kg): 25.3
IC50 [13]: > 30 µM
MIC (M. tuberculosis H37Rv [14]): 0.07 µg/mL (≈ 0.13 µM)
MIC [15]: 0.124 µg/mL (≈ 0.231 µM)
MBCs (M. tuberculosis H37Rv [16]): 2.500 µg/mL
MIC [17]: 0.117 µg/mL (≈ 0.218 µM)
